Values quoted from earlier work, collected in patent US6673908B1, “Tumor necrosis factor receptor 2” (Nuvelo, Inc., priority 1999, dated 2004).
Structures can show the parent of a compound that is named as a salt. Where two headings read alike, the source gives them in different places.

Assays:
[1] = test system: advanced colorectal cancer
[2] = target: T1, 5-lipoxygenase (5-LO) (Homo sapiens, UniProt P09917); conditions: for FEV1, % change from baseline: high dose
T1 construct: host or cells: asthma patients (in vivo, endogenous enzyme)
T1 sequence (P09917 1-674): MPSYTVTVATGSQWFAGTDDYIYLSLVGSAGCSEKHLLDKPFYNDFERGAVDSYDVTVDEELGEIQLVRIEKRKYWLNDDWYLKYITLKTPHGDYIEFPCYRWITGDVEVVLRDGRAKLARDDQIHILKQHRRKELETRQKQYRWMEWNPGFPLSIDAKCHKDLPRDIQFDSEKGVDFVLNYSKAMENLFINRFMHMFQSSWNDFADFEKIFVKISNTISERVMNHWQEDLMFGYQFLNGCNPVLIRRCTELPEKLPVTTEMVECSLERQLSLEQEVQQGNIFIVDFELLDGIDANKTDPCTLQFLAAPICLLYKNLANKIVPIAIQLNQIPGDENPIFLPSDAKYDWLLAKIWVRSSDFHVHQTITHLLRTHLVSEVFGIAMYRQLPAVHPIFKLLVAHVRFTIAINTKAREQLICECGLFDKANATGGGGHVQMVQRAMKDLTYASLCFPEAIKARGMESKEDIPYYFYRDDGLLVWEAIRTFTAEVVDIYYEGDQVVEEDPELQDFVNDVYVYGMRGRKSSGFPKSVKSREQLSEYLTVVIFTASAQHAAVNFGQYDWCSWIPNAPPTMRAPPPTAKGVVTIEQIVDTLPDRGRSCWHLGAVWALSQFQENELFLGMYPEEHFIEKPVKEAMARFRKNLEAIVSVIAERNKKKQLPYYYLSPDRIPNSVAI

[3] = test system: β2-adrenergic receptor
[4] = test system: CD3 lymphocytes; conditions: in vivo
[5] = test system: hepatitis C virus (HCV)

O=c1[nH]cc(F)c(=O)[nH]1 [5-fluorouracil]
patients with a complete response (complete tumor disappearance) [1]: 1-5% | patients with an objective response [1]: 20-40%

C[C@H](C#Cc1ccc(Cc2ccc(F)cc2)s1)N(O)C(N)=O [ABT-761]
FEV1, % change from baseline ([2]; Mutant, Day 8): 1.8% | FEV1, % change from baseline ([2]; Mutant, Day 84): 5% | FEV1, % change from baseline ([2]; Wild type, Day 8): 8.2% | FEV1, % change from baseline ([2]; Wild type, Day 84): 18.5% | improvement of forced expiratory volume ([2]; heterozygous patients, high-dose active treatment, within one week): 23.3±6.0% | improvement of forced expiratory volume ([2]; patients with mutant genotype, active 5-LO inhibitor treatment): −1.2±2.9% | improvement of forced expiratory volume ([2]; wild-type patients, high-dose active treatment): 18.8±3.6%

Nc1c2c(nc3ccccc13)CCCC2 [Cognex, tacrine hydrochloride]
patients showing no change or minimal worsening of their disease (Alzheimer's disease patients): about 45% | patients minimally improved (Alzheimer's patients): About 58% | patients much improved (Alzheimer's patients): about 2%

COc1ccc(CC(C)NCC(O)c2ccc(O)c(NC=O)c2)cc1 (stereo not shown) [Formoterol]
Degree of Brochodilator Desensitisation after Formoterol Therapy: 6 Hour FEF25-75 ([3]; Arg 16 (n = 4)): 23% | Degree of Brochodilator Desensitisation after Formoterol Therapy: 6 hour FEV1 ([3]; Arg 16 (n = 4)): 28% | Degree of Brochodilator Desensitisation after Formoterol Therapy: Maximal FEF25-75 ([3]; Arg 16 (n = 4)): −35% | Degree of Brochodilator Desensitisation after Formoterol Therapy: Maximal FEV1 ([3]; Arg 16 (n = 4)): −8% | mean FEV1 desensitisation ([3]; Arg16 homozygotes): 28% | Degree of Brochodilator Desensitisation after Formoterol Therapy: 6 Hour FEF25-75 ([3]; Gln27 (n = 5)): 38% | Degree of Brochodilator Desensitisation after Formoterol Therapy: 6 hour FEV1 ([3]; Gln27 (n = 5)): 47% | Degree of Brochodilator Desensitisation after Formoterol Therapy: Maximal FEF25-75 ([3]; Gln27 (n = 5)): −15% | Degree of Brochodilator Desensitisation after Formoterol Therapy: Maximal FEV1 ([3]; Gln27 (n = 5)): 3% | Degree of Brochodilator Desensitisation after Formoterol Therapy: 6 Hour FEF25-75 ([3]; Glu/Gln27 (n = 11)): 70% | Degree of Brochodilator Desensitisation after Formoterol Therapy: 6 hour FEV1 ([3]; Glu/Gln27 (n = 11)): 65% | Degree of Brochodilator Desensitisation after Formoterol Therapy: Maximal FEF25-75 ([3]; Glu/Gln27 (n = 11)): 45% | Degree of Brochodilator Desensitisation after Formoterol Therapy: Maximal FEV1 ([3]; Glu/Gln27 (n = 11)): 52% | Degree of Brochodilator Desensitisation after Formoterol Therapy: 6 Hour FEF25-75 ([3]; Gly 16 (n = 10)): 103% | Degree of Brochodilator Desensitisation after Formoterol Therapy: 6 hour FEV1 ([3]; Gly 16 (n = 10)): 80% | Degree of Brochodilator Desensitisation after Formoterol Therapy: Maximal FEF25-75 ([3]; Gly 16 (n = 10)): 73% | Degree of Brochodilator Desensitisation after Formoterol Therapy: Maximal FEV1 ([3]; Gly 16 (n = 10)): 48% | mean FEV1 desensitisation ([3]; Gly16 homozygotes): 80% | Degree of Brochodilator Desensitisation after Formoterol Therapy: 6 Hour FEF25-75 ([3]; Gly/Arg 16 (n = 8)): 70% | Degree of Brochodilator Desensitisation after Formoterol Therapy: 6 hour FEV1 ([3]; Gly/Arg 16 (n = 8)): 57% | Degree of Brochodilator Desensitisation after Formoterol Therapy: Maximal FEF25-75 ([3]; Gly/Arg 16 (n = 8)): 50% | Degree of Brochodilator Desensitisation after Formoterol Therapy: Maximal FEV1 ([3]; Gly/Arg 16 (n = 8)): 48%

Monoclonal antibody: murine monoclonal antibody to deplete the circulating CD3 lymphocytes; reacts with the T3 recognition site of T-lymphocytes
sensitization rate [4]: 15-40% | treated patients producing human anti-mouse antibodies (HAMA) [4]: 80%

interferon alpha
patients in whom viral infection is completely and permanently eliminated ([5]; hepatitis C virus infection): less than a quarter of patients | patients receiving virtually no benefit ([5]; hepatitis C virus infection): Nearly half of patients | response rates ([5]; patients with HCV genotype 1 (especially 1b)): under 10% | response rates ([5]; patients with HCV genotype 2 or 3): greater than 40%
